Results: article PMC10419416, “Fighting Pseudomonas aeruginosa Infections: Antibacterial and Antibiofilm Activity of D-Q53 CecB, a Synthetic Analog of a Silkworm Natural Cecropin B Variant” (International Journal of Molecular Sciences, 2023)
Non-standard residues stand in square brackets, D forms with d. Residues, ends and D or L forms follow the SMILES beside them. No end group written: not given here.

Key:
[1] = tested on: P. aeruginosa ATCC 27853, non-mucoid strain; test: Degradation of pre-formed 24 h old biofilm, crystal violet; type: cell-based, Pseudomonas aeruginosa; details: for mean decrement in biomass of pre-formed biofilm: 1 h treatment of 24 h old biofilm
Description: (§1) One hundred μL of bacteria (1 × 10^6 cells/mL), derived from a fresh ON culture, were seeded in a sterile non-treated polystyrene 96-well plate (Corning) and incubated for 24 h at 37 °C without agitation. […] Evaluation of biofilm biomass was performed using a crystal violet assay as described above (Section 4.8). Experiments were performed two-four times.

[2] = tested on: P. aeruginosa ATCC 25668, mucoid strain; test: as above; type: cell-based, Pseudomonas aeruginosa; details: for mean decrement in biomass of pre-formed biofilm: 1 h treatment of 24 h old biofilm
Description: as §1

[3] = tested on: P. aeruginosa ATCC 25668 (lasI, rpoS, fimX, pslA, pelA, algD); test: Real-time qPCR of genes involved in biofilm formation; type: cell-based, Pseudomonas aeruginosa; details: 20 h; 1/2 MIC L- or 1/4 MIC D-Q53 CecB; normalised to rplU
Description: Bacteria were collected after centrifugation and stored in Trizol Reagent (Ambion, Waltham, MA, USA) at −80 °C, until use. Total RNA was extracted using the Direct-zol RNA MiniPrep kit (Zymo Research, Irvine, CA, USA). The complementary DNA (cDNA) was synthesized using the Maxima™ H Minus cDNA Synthesis Master Mix with dsDNase (Molecular biology, Thermo Scientific). Each qPCR reaction was performed in triplicate, using the GoTaq qPCR Master Mix (Promega, Madison, WI, USA) and a CFX96 Real-Time PCR Detection System (Bio-Rad, Hercules, CA, USA), following the manufacturer’s instructions. The amplification conditions were 95 °C 2 min, (15 s at 95 °C, 1 min at the appropriate annealing temperature Ta, as in Table 5) ×40 cycles. The rplU gene, coding the 50 S ribosomal protein, was used to normalize qPCR data as in [36]. Fold changes were calculated by the 2^−ΔΔCT analysis method.

[4] = tested on: P. aeruginosa ATCC 25668 strain; test: EPS determination, phenol-sulfuric acid method; type: cell-based, Pseudomonas aeruginosa; details: 20 h incubation; 1/2 MIC L-Q53 CecB or 1/4 MIC D-Q53 CecB; OD490
Description: Experiments were performed in LB medium supplemented 2% glucose to enhance the EPS production, as in [46]. Five mL of bacterial cultures (1 × 10^6 cells/mL) were added to the same volume of the peptide at a dilution not-inhibiting the bacterial growth (final concentrations 1.1 and 0.55 µM for L- and D-Q53 CecB, respectively, as in Section 4.11) and incubated at 37 °C for 20 h with agitation (200 rpm). 10 mL of bacterial culture (5 × 10^5 cells/mL) without any peptide were grown in parallel. Samples were incubated at 37 °C for 20 h with agitation. Glucan levels were determined as in [46, 75] with some modifications. For each sample, 5 mL were centrifuged at 5000× g for 10 min, and supernatants were collected in clean tubes; pellets were washed twice in 2.5 mL autoclaved water and centrifuged at 5000× g for 10 min, collecting supernatants again. Three volumes of chilled absolute ethanol were added to the collected supernatants and placed at 4 °C ON to precipitate polysaccharides. After centrifugation at 10,000× g for 10 min, pellets were washed with chilled ethanol 70% and resuspended in 5 mL 0.1 M NaOH. Two mL of 5% aqueous solution of phenol and 5 mL of concentrated sulphuric acid were added. Mixtures were incubated 10 min at RT in the dark, vortexed 30 sec, placed in a water bath at 25 °C 20 min and read at 490 nm. The experiment was performed four times, each condition in duplicate.

[5] = tested on: human red blood cells (hRBCs); type: cell-based; details: for MHC (minimum hemolytic concentration causing 5% hemolysis of hRBCs): red cells of human, 1 h
Description: The peptide hemolytic activity was evaluated against human red blood cells (hRBCs) using the Haemolysis Assay Kit (HaemoScan, Groningen, The Netherlands), following the manufacturer’s instructions. 180 μL of hRBC solution were incubated 1 h at 37 °C with 20 μL of serially diluted L- and D-CecB Q53 peptides (final concentrations of 5, 10, 25, 50, 100, 200 µM) in triplicate. As hemolysis positive and negative controls, hRBC solutions incubated, respectively, with 0.2% Triton X and PBS, were followed in parallel. After centrifugation 10 min at 10,000× g, each supernatant was diluted 1:10 in the Assay Buffer and read at 450 nm with a microplate reader.
Hemolysis was evaluated according to the following equation: Hemolysis (%)=ODCecB−OD0/ODCtrl−OD0×100, where ODCecB is the OD in the presence of the peptide, ODCtrl is the OD of treated controls (0.2% Triton X), and OD0 is the background absorbance. The experiment was performed at least twice.

[6] = tested on: P. aeruginosa ATCC 27853 and ATCC 25668 strains; test: Growth curves with sub-MIC concentrations; type: cell-based, Pseudomonas aeruginosa; details: growth curves 14 h, OD600, AUC vs untreated; both strains; 1 MIC = 2.2 μM
Description: Microbial suspensions in LB medium (positive controls) and wells with LB medium only (negative controls) were followed in parallel. Plates were incubated at 37 °C with agitation (300 rpm), and the absorbance was measured every 2 h for 14 h at 600 nm. For each time point, a ΔOD600 was determined by subtracting the OD600 recorded at time 0 from those obtained at the different time-points. To establish the peptide concentration not inhibiting bacterial growth, for each treatment, the Area Under the Curve (AUC) was calculated and compared to that of untreated controls.
Supplementary Figure S3. Growth curves of P. aeruginosa treated with of L-Q 53 CecB and D-Q 53 CecB peptides at sub-MIC concentrations. ATCC 27853 strain treated with (A) L-Q 53 CecB and (B) D-Q 53 CecB. ATCC 25668 strain treated with (C) L-Q 53 CecB and (D) D-Q 53 CecB. Bacteria treated with 1 MIC L- or D- Q53 CecB peptides and untreated bacteria represent positive and negative controls, respectively. One-w ay ANOVA followed by post-h oc Dunnett’s tests […]
samples and negative controls [A TCC 27853: (A) F4, 10 = 257.8, p < 0.0001; 1/2 MIC L-Q 53 CecB vs negative controls:
Dunnett’s test p > 0.05, ns; (B) F 4,10 = 256.9, p < 0.0001; 1/4 MIC D-Q 53 CecB vs negative controls: Dunnett’s test p > 0.05, […]
= 43.58, p < 0.0001; 1/4 MIC D-Q 53 CecB vs negative controls: Dunnett’s test p > 0.05, ns]. […]

Compound | mean decrement in biomass of pre-formed biofilm ([1]; 1/2 MIC (1.1 μM)) | reduction of pre-formed biofilm ([1]; 1/4 MIC (0.55 μM), 1 h) | mean decrement in biomass of pre-formed biofilm ([1]; 8 MIC (17.6 μM)) | mean decrement in biomass of pre-formed biofilm ([2]; 1/2 MIC (1.1 μM)) | reduction of pre-formed biofilm ([2]; 1/4 MIC (0.55 μM), 1 h) | mean decrement in biomass of pre-formed biofilm ([2]; 8 MIC (17.6 μM)) | expression level of fimX [3] | expression level of lasI [3] | expression level of rpoS [3] | expression of algD [3] | expression of pelA [3] | transcription of pslA [3] | effect on water-soluble EPS production [4] | mean hemolysis ([5]; 100 µM) | MHC (minimum hemolytic concentration causing 5% hemolysis of hRBCs) [5] | sub-MIC concentration not inhibiting bacterial growth [6] | reduction of pre-formed biofilm biomass at all tested concentrations ([1]; 1 h, L-Q53 CecB 1/2 to 8 MIC, tobramycin 1 to 8 MIC) | reduction of pre-formed biofilm biomass ([2]; 4 MIC, 1 h, single sample) | reduction of pre-formed biofilm biomass at all tested concentrations ([2]; 1 h, L-Q53 CecB 1/2 to 8 MIC (except 4 MIC), tobramycin 1 to 8 MIC)
CC[C@@H](C)[C@@H](NC(=O)[C@@H](C)NC(=O)[C@@H](CCCCN)NC(=O)[C@@H](C)NC(=O)[C@@H](CO)NC(=O)CNC(=O)[C@@H](CC(C)C)NC(=O)[C@H](NC(=O)[C@@H](CCC(N)=O)NC(=O)[C@H](NC(=O)[C@@H](C)NC(=O)[C@H]1CCCN1C(=O)CNC(=O)[C@@H](C)NC(=O)[C@@H](CCCCN)NC(=O)[C@H](NC(=O)[C@H](NC(=O)CNC(=O)[C@@H](CC(=O)O)NC(=O)[C@@H](CCCNC(=N)N)NC(=O)[C@H](NC(=O)[C@@H](CC(N)=O)NC(=O)[C@@H](CCCNC(=N)N)NC(=O)CNC(=O)[C@@H](CCSC)NC(=O)[C@@H](CCCCN)NC(=O)[C@@H](CCC(=O)O)NC(=O)[C@H](NC(=O)[C@@H](CCCCN)NC(=O)[C@@H](CCCCN)NC(=O)[C@@H](Cc1ccccc1)NC(=O)[C@H](NC(=O)[C@@H](CCCCN)NC(=O)[C@@H](Cc1c[nH]c2ccccc12)NC(=O)[C@H](N)CCCNC(=N)N)[C@H](C)CC)[C@H](C)CC)[C@H](C)CC)[C@H](C)CC)C(C)C)[C@H](C)CC)C(C)C)C(N)=O [D-Q53 CecB] (H-[dR][dW][dK][dI][dF][dK][dK][dI][dE][dK][dM]G[dR][dN][dI][dR][dD]G[dI][dV][dK][dA]G[dP][dA][dI][dQ][dV][dL]G[dS][dA][dK][dA][dI]-NH2; N-terminus and C-terminus assumed) | 49% | lost its ability to reduce pre-formed biofilms | 64% | 38% | lost its ability to reduce pre-formed biofilms | 52% | not significantly different | did not significantly alter | did not significantly alter | significantly lower | significantly lower | did not affect | significantly reduce | 5.9% | 100 µM | 1/4 | – | – | –
RWKIFKKIEKMGRNIRDGIVKAGPAIQVLGSAKAI-NH2 [L-Q53 CecB] | – | – | – | – | – | – | not significantly different | did not significantly alter | did not significantly alter | None of the analyzed genes were altered | None of the analyzed genes were altered | did not affect | did not show any significant effect | – | >200 µM | 1/2 | did not significantly reduce biofilm biomass | significant biofilm biomass decrements | did not significantly reduce biofilm biomass
